Patent US20220160647A1, “TRANSDERMAL DRUG DELIVERY DEVICE/TRANSDERMAL PATCH AND OTHER APPLICATIONS OF EMULSION FORMULATION” (First Necessity, LLC, priority 2020, published 2022)

How the values were obtained:
[1] = Solubility of CBD in water, MCT oil and the liposomal polymeric emulsion; type: physicochemical
Text: (E. Samara and M. Bialer, Drug Metab. Dispos., 16 (6) 875-879 (1988). This provides a maximum weight/weight percent of approximately 0.07%.
In certain embodiments of the present teaching, hyaluronic acid may be present in the polymeric-emulsion disclosed herein. Such embodiments also include the presence of water. […] In the present case, this value was slightly exceeded in testing the liposomal polymeric emulsion set forth herein in combination with hyaluronic acid, water and MCT as the hydrophobic component. […] That said, the polymeric liposomal emulsion set forth herein retains the ability to dissolve water soluble compounds even when incorporating oil-soluble compounds at a relatively high percentage or amount.

[2] = accepted value (Samara and Bialer 1988); cited from earlier work
[3] = liposomal polymeric emulsion with hyaluronic acid, water and MCT

## C=C(C)[C@@H]1CCC(C)=C[C@H]1c1c(O)cc(CCCCC)cc1O [CBD, cannabidiol]
[1]; MCT oil
  concentration of CBD in stable solution: 400000 µg/mL
  concentration of CBD in stable solution, by weight: 40 % by weight
[1]; liposomal polymeric emulsion vs base MCT oil
  increase in CBD solubility compared to base MCT oil: 1.125 fold
[1]; liposomal polymeric emulsion vs water
  increase in CBD solubility compared to water: greater than 500 fold
[1]; [3]
  concentration of CBD in solution: 450000 µg/mL
  concentration of CBD in solution, by weight: 45 % by weight
[1]; pure water, worked out from 0.7 μg per mL
  maximum weight/weight percent of CBD in water: approximately 0.07%
[2]
  solubility of CBD in pure water: 0.7 μg per mL
